One assay concerns MDA-MB-468. The assay is described as follows: Cell viability assay by WST-1 on MDA-MB-468. The format is cell-based, human. Conditions: 10 μM, two days, breast MDA-MB-468. The protocol:
Three tumor cells were tested, i.e., HCT116 (colorectal cancer), AsPC-1 (pancreatic cancer) and MDA-MB-468 cell lines (breast cancer). Human colorectal carcinoma cell line HCT116 (catalog number: BCRC 60349, Bioresource Collection and Research Center (BCRC), Hsinchu City, Taiwan) was maintained in the culture medium: McCoy's 5a medium (catalog number: 16-600-082, Gibco, Waltham, Mass.) with 1.5 mM L-glutamine (Gibco) and 10% fetal bovine serum (FBS, Gibco). Human pancreatic adenocarcinoma cell line AsPC-1 (catalog number: BCRC 60494, BCRC) was maintained in the culture medium: RPMI 1640 medium (catalog number: 11875168, Gibco) with 2 mM L-glutamine, 4.5 g/L glucose (Gibco), 10 mM HEPES (Gibco), 1 mM sodium pyruvate (Gibco) and 10% fetal bovine serum. […]
For cell viability assay, tumor cells (1×10^5/mL) were suspended in the medium without testing drugs and then inoculated in 96-well plates (100 μL per well) for attachment first. […] Cell proliferation was quantified by using a Premix WST-1 Cell Proliferation Assay System (Takara, Japan). According to the manufacturer's protocol, cell proliferation was determined by measuring the optical density (OD) after the reaction for 3 hours by recording the absorbance at 450 nm using a plate reader (Multiskan Go, Thermo Fisher Scientific).
(Tetrazolium dyes change colour on reduction, which living cells bring about.)

The next assay deals with T1, 3CL^pro (Severe acute respiratory syndrome coronavirus 2, UniProt P0DTD1).
T1 construct: A 3CL^pro (Cat. #78042-1) assay kit (BPS Bioscience, CA, USA); purchased BPS Bioscience 78042-1
Nature of the assay: FRET-based 3CL^pro enzyme activity assay. Type of assay: biochemical. Conditions: single use, 3 to 90 μM.

The test system of a further assay is shATG4B/HCT116. The assay is described as follows: Cell viability assay on shATG4B/HCT116 (ATG4B silencing strain). Type of assay: cell-based, human.
The test system of another assay is AsPC-1. Nature of the assay: Cell viability assay (MTT) on AsPC-1.
The test system of assay [1] is AK4.4 pancreatic ductal adenocarcinoma (PDAC) xenograft.
A further assay has as its system shCtrl/HCT116. The assay is described as follows: Cell viability assay on shCtrl/HCT116 (control strain). The format is cell-based, human. Conditions: HCT116 (FIG. 13A, shCtrl/HCT116).
A further assay concerns AK4.4. The assay is described as follows: Cell viability assay (MTT) on AK4.4. Conditions: for IC50: Mus musculus.
The next assay has as its target ATG4B (Homo sapiens, UniProt Q9Y4P1). Nature of the assay: In vitro cleavage assay of ATG4B catalytic activity (western blot of tagged LC3B). Type of assay: biochemical. For orientation: In western blotting, separated proteins are transferred to a membrane and probed.
The subject of a further assay is LC3B-II. Nature of the assay: Western blotting of LC3B-II in AK4.4 and AsPC-1 cells. The format is cell-based. Conditions: AK4.4 and AsPC-1, western blotting. The protocol:
Cells were seeded in a 12-well plate (10^5 cells/well) and cultured in serum-free medium (SFM) with different concentrations of drugs for six hours. The plate was then washed with phosphate-buffered saline (PBS), and cells were lysed with 100 μL radioimmunoprecipitation assay buffer (RIPA buffer) for each well. The cell extracts were mixed with 4×dye (900 μL of 4×Laemmli sample buffer+100 μL of 2-mercaptoethanol) at 95° C. for ten minutes and separated by sodium dodecyl sulfate-polyacrylamide gel electrophoresis (SDS-PAGE). The fractions were then transferred to a polyvinylidene fluoride (PVDF) membrane and immersed in 5% nonfat milk at room temperature for one hour. Afterward, the transfer membrane was incubated with protein-specific primary antibodies at 4° C. overnight, washed by PBST (0.1% Tween 20 in PBS), and then incubated with horseradish peroxidase (HRP)-conjugated secondary antibodies at room temperature for one hour. The blots washed by PBST were then detected by enhanced chemiluminescence (ECL) for the quantification of proteins.

The target in assay [2] is LC3B substrate of the ATG4B activity reporter assays (cleavage releases PLA2), Q9GZQ8. The assay is described as follows: cell-based or functional assay.
Setting [3] is: Vb concentration for 50% reduction of viability in combination with 0.50 μM Mx.

Values joined by “and” are separate entries in the source; they are usually repeats but may differ in a detail not shown here. Identical values can stand only once. Like-named read-outs stand apart in the source and are kept apart here.

ATG4B, sequence (Q9Y4P1 whole entry): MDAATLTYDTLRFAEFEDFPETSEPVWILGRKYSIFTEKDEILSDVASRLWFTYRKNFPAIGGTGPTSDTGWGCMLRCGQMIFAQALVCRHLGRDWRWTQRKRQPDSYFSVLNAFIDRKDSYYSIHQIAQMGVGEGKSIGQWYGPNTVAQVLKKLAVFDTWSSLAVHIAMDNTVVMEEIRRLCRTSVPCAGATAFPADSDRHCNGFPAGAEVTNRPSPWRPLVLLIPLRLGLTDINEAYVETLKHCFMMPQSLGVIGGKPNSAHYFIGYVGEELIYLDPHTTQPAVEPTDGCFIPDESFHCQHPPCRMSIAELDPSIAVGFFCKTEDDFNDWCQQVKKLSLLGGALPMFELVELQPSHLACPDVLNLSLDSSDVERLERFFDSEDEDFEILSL
Method for 3CL^pro: The intensity of this fluorescence is proportional to the protease activity.
Inhibition percentage is calculated by “1−(Itest−Isubstrate)/(Ipositive−Isubstrate),” where I represents the value of inhibition ability.
The FRET (fluorescence resonance energy transfer)-based assay was designed for 3CL^pro activity assay and explained in FIG. 10. The 3CL^pro enzyme assay was developed in a 96-well black microplate with a total volume of 50 μL. 30 μL of 0.5 ng/μL enzyme in a reaction buffer was added into each well, followed by the addition of 10 μL substrate solution to a final concentration of 40 μM.

`CC1=C(/C=C/C(C)=C/C=C/C(C)=C/C(=O)Nc2ccc(O)cc2)C(C)(C)CCC1` [Fenretinide]: the “suppression of tumor cell growth” value in the assay on MDA-MB-468 is listed as “seems to be a better breast cancer inhibitor”.
In the case of `CC(C)C[C@@H](N)C(=O)N[C@H]1C(=O)N[C@@H](CC(N)=O)C(=O)N[C@H]2C(=O)N[C@H]3C(=O)N[C@H](C(=O)N[C@H](C(=O)O)c4cc(O)cc(O)c4-c4cc3ccc4O)[C@H](O)c3ccc(c(Cl)c3)Oc3cc2cc(c3O[C@@H]2O[C@H](CO)[C@@H](O)[C@H](O)[C@H]2O[C@H]2C[C@](C)(N)[C@H](O)[C@H](C)O2)Oc2ccc(cc2Cl)[C@H]1O` [norvancomycin], the “inhibition of 3CL^pro” value on 3CL^pro was 20 to 30%.
As a reminder, the IC50 is the midpoint of a concentration-inhibition curve. The viability is the share of living cells, or the viability signal relative to a control. As usually defined, the inhibition is how much of the control response was suppressed. For the molecule `CCC1=C[C@@H]2CN(C1)Cc1c([nH]c3ccccc13)[C@@](C(=O)OC)(c1cc3c(cc1OC)N(C)[C@H]1[C@@](O)(C(=O)OC)[C@H](OC(C)=O)[C@]4(CC)C=CCN5CC[C@]31[C@@H]54)C2` [Vinorelbine], the reduced cell viability with shATG4B/HCT116 was 37% and 43% and 54%; in the assay with AsPC-1 (AsPC-1, 5 μM), 68%; in the assay on AsPC-1 (AsPC-1, 10 μM), 61%; with AsPC-1 (AsPC-1, 20 μM) it was 46%; with shCtrl/HCT116 (4 μM), 55%; in the assay with shCtrl/HCT116 (10 μM), 63%. For the same molecule, the reduced cell viability was 68% in the assay on shCtrl/HCT116 (20 μM); 62% with AK4.4 (AK4.4, 5 μM); 51% in the assay on AK4.4 (AK4.4, 10 μM); 24% in the assay on AK4.4 (AK4.4, 20 μM). Also, the 50% inhibitory concentration (IC50) in the assay on AsPC-1 (Homo sapiens, ASPC1, read-out: IC50, Vb, vinorelbine alone, AsPC-1 (Table 9)) worked out at 17.4 µM; with AsPC-1 (Homo sapiens, ASPC1, read-out: IC50, Vb, vinorelbine alone, AsPC-1 (Table 15)) it was 33.1 µM; with AK4.4 (read-out: IC50, Vb, vinorelbine alone, AK4.4 (Table 8)) it was 10.4 µM; in the assay on AK4.4 (read-out: IC50, Vb, vinorelbine alone, AK4.4 (Table 14)) it was 7.19 µM. Also, the viability at 5 µM in the assay with AsPC-1 (Homo sapiens, ASPC1, read-out: cell viability, AsPC-1, 5 μM vinorelbine alone) was 68%. The viability at 10 µM in the assay with AsPC-1 (Homo sapiens, ASPC1, read-out: cell viability, AsPC-1, 10 μM vinorelbine alone) came to 61%. Further, the viability at 20 µM in the assay on AsPC-1 (Homo sapiens, ASPC1, read-out: cell viability, AsPC-1, 20 μM vinorelbine alone) amounted to 46%. The “CVb, 50” value in the assay on AsPC-1 (setting [3]) stood at 18.94 µM; in the assay with AsPC-1 (Vb concentration for 50% reduction of viability in combination with 1.00 μM Mx), 9.05 µM; in the assay on AK4.4 (setting [3]), 3.91 µM. Besides, in [1] (20 mg/kg, day 16), the “tumor size compared to the control group” value is given as 70%. The “tumor size measured on day 16 versus control group” value in assay [1] (dose of 10 mg/kg, days 3, 5, 7, 10, 12, 14) is given as “less than half of the tumor size in the control group”. Besides, the “reduction of the ATG4B activity on LC3B catalysis” value on ATG4B (10 μM vinorelbine, FIG. 4B) was determined as 42%. Besides, the inhibition at 10 µM on ATG4B (read-out: inhibition of ATG4B catalysis) came to 58%. The “abundance of LC3B-II in cells” value with LC3B-II is “accumulation of LC3B-II”.

B1: N-term-9 (Ac-…-NH2) (peptide)
peptide: Ac-YDTLRFAEF-NH2
As for B1, the inhibition to ATG4B activity (ATG4B activity reporter assays) in assay [2] is 25%.

The values are drawn from patent publication US20230187019A1, “METHOD FOR DETERMINING A DRUG COMBINATION VIA A BLOCKING MODEL OF A MULTI-SITE-TARGETED PROTEIN AND APPLICATIONS THEREOF” (National Tsing Hua University, priority 2021, published 2023).
